#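 Tested at 5 concentrations; 48 h exposure; 96-well plates; endpoints linearly interpolated, else capped at highest concentration. TGI is the concentration that stops growth completely.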
# Tests used:
# Experiment in all cases: NCI anticancer screen, dose series, 48 h
# A549 NSCLC = test system: A549 NSCLC
# KM12 colon = test system: KM12 colon
# SK-MEL-2 melanoma = test system: SK-MEL-2 melanoma
# SK-MEL-28 melanoma = test system: SK-MEL-28 melanoma
# NCI-H226 lung = test system: NCI-H226 lung
# SW-620 colon = test system: SW-620 colon
# MCF7 breast = test system: MCF7 breast
# SF-268 CNS = test system: SF-268 CNS
# T-47D breast = test system: T-47D breast
# TK-10 renal = test system: TK-10 renal
# SK-OV-3 ovarian = test system: SK-OV-3 ovarian
# PC-3 prostate = test system: PC-3 prostate
# UACC-257 melanoma = test system: UACC-257 melanoma
# A498 renal = test system: A498 renal
# M14 melanoma = test system: M14 melanoma
# HCC-2998 colon = test system: HCC-2998 colon
# K-562 leukemia = test system: K-562 leukemia
# BT-549 breast = test system: BT-549 breast
# EKVX NSCLC = test system: EKVX NSCLC
# MALME-3M melanoma = test system: MALME-3M melanoma
# NCI-H522 lung = test system: NCI-H522 lung
# NCI-H460 lung = test system: NCI-H460 lung
# HL-60(TB) leukemia = test system: HL-60(TB) leukemia
# COLO 205 colon = test system: COLO 205 colon
# IGROV1 ovarian = test system: IGROV1 ovarian
# U251 CNS = test system: U251 CNS
# HS 578T breast = test system: HS 578T breast
# OVCAR-3 ovarian = test system: OVCAR-3 ovarian
# MDA-MB-231 breast = test system: MDA-MB-231 breast
# HCT-15 colon = test system: HCT-15 colon
# CCRF-CEM leukemia = test system: CCRF-CEM leukemia
# OVCAR-4 ovarian = test system: OVCAR-4 ovarian
# 786-0 renal = test system: 786-0 renal
# SF-539 CNS = test system: SF-539 CNS
# NCI-H23 lung = test system: NCI-H23 lung
# RPMI-8226 leukemia = test system: RPMI-8226 leukemia
# MDA-N = test system: MDA-N
# SN12C renal = test system: SN12C renal
# UACC-62 melanoma = test system: UACC-62 melanoma
# SNB-19 CNS = test system: SNB-19 CNS
# HCT-116 colon = test system: HCT-116 colon
# HOP-62 NSCLC = test system: HOP-62 NSCLC
# MDA-MB-435 = test system: MDA-MB-435
# DU-145 prostate = test system: DU-145 prostate
# LOX IMVI melanoma = test system: LOX IMVI melanoma
# MOLT-4 leukemia = test system: MOLT-4 leukemia
# RXF 393 renal = test system: RXF 393 renal
# SK-MEL-5 melanoma = test system: SK-MEL-5 melanoma
# SNB-75 CNS = test system: SNB-75 CNS
# OVCAR-8 ovarian = test system: OVCAR-8 ovarian
# SR leukemia = test system: SR leukemia
# ACHN renal = test system: ACHN renal
# UO-31 renal = test system: UO-31 renal
# HT29 colon = test system: HT29 colon
# CAKI-1 renal = test system: CAKI-1 renal
# NCI/ADR-RES ovarian = test system: NCI/ADR-RES ovarian
# HOP-92 NSCLC = test system: HOP-92 NSCLC
# OVCAR-5 ovarian = test system: OVCAR-5 ovarian
# SF-295 CNS = test system: SF-295 CNS
structure (smiles),measurement,setting,value
C=C1CCC(O)C/C1=C/C=C1\CCCC2(C)C1CCC2C(C)CCCC(C)C (stereo not drawn),TGI,A549 NSCLC,36.3 µM
same,TGI,KM12 colon,38 µM
same,TGI,SK-MEL-2 melanoma,37.2 µM
same,TGI,SK-MEL-28 melanoma,30.4 µM
same,TGI,NCI-H226 lung,31.3 µM
same,TGI,SW-620 colon,31.8 µM
same,TGI,MCF7 breast,29.3 µM
same,TGI,SF-268 CNS,46.5 µM
same,TGI,T-47D breast,38.8 µM
same,TGI,TK-10 renal,25.1 µM
same,TGI,SK-OV-3 ovarian,41.9 µM
same,TGI,PC-3 prostate,34.3 µM
same,TGI,UACC-257 melanoma,32.2 µM
same,TGI,A498 renal,36.7 µM
same,TGI,M14 melanoma,34.8 µM
same,TGI,HCC-2998 colon,38.6 µM
same,TGI,K-562 leukemia,> 59.2 µM
same,TGI,BT-549 breast,37.4 µM
same,TGI,EKVX NSCLC,35.4 µM
same,TGI,MALME-3M melanoma,38 µM
same,TGI,NCI-H522 lung,33 µM
same,TGI,NCI-H460 lung,46.7 µM
same,TGI,HL-60(TB) leukemia,> 60.2 µM
same,TGI,COLO 205 colon,34 µM
same,TGI,IGROV1 ovarian,31.3 µM
same,TGI,U251 CNS,34.4 µM
same,TGI,HS 578T breast,36.4 µM
same,TGI,OVCAR-3 ovarian,35.4 µM
same,TGI,MDA-MB-231 breast,35.6 µM
same,TGI,HCT-15 colon,35.3 µM
same,TGI,CCRF-CEM leukemia,> 65.4 µM
same,TGI,OVCAR-4 ovarian,35.7 µM
same,TGI,786-0 renal,30.6 µM
same,TGI,SF-539 CNS,36.5 µM
same,TGI,NCI-H23 lung,33.7 µM
same,TGI,RPMI-8226 leukemia,64.9 µM
same,TGI,MDA-N,34.3 µM
same,TGI,SN12C renal,30.8 µM
same,TGI,UACC-62 melanoma,34.9 µM
same,TGI,SNB-19 CNS,33.2 µM
same,TGI,HCT-116 colon,28.5 µM
same,TGI,HOP-62 NSCLC,35.4 µM
same,TGI,MDA-MB-435,31.3 µM
same,TGI,DU-145 prostate,41.3 µM
same,TGI,LOX IMVI melanoma,34.5 µM
same,TGI,MOLT-4 leukemia,> 61.5 µM
same,TGI,RXF 393 renal,33.4 µM
same,TGI,SK-MEL-5 melanoma,36.3 µM
same,TGI,SNB-75 CNS,37.6 µM
same,TGI,OVCAR-8 ovarian,33.2 µM
same,TGI,SR leukemia,> 63.6 µM
same,TGI,ACHN renal,30.6 µM
same,TGI,UO-31 renal,28.3 µM
same,TGI,HT29 colon,29.9 µM
same,TGI,CAKI-1 renal,35.2 µM
same,TGI,NCI/ADR-RES ovarian,34.9 µM
same,TGI,HOP-92 NSCLC,33 µM
same,TGI,OVCAR-5 ovarian,37.4 µM
same,TGI,SF-295 CNS,35.1 µM
N#Cc1c(O)c(C=Nc2ccc(Cl)cc2)c(=O)n2c1[nH]c1ccccc12,TGI,A549 NSCLC,> 100 µM
same,TGI,KM12 colon,> 100 µM
same,TGI,SK-MEL-2 melanoma,> 100 µM
same,TGI,SK-MEL-28 melanoma,> 100 µM
same,TGI,NCI-H226 lung,> 100 µM
same,TGI,SW-620 colon,> 100 µM
same,TGI,MCF7 breast,> 100 µM
same,TGI,SF-268 CNS,> 100 µM
same,TGI,T-47D breast,> 100 µM
same,TGI,TK-10 renal,> 100 µM
same,TGI,SK-OV-3 ovarian,> 100 µM
same,TGI,PC-3 prostate,> 100 µM
same,TGI,UACC-257 melanoma,> 100 µM
same,TGI,A498 renal,> 100 µM
same,TGI,M14 melanoma,> 100 µM
same,TGI,HCC-2998 colon,> 100 µM
same,TGI,K-562 leukemia,> 100 µM
same,TGI,BT-549 breast,> 100 µM
same,TGI,EKVX NSCLC,> 100 µM
same,TGI,MALME-3M melanoma,> 100 µM
same,TGI,NCI-H522 lung,> 100 µM
same,TGI,NCI-H460 lung,> 100 µM
same,TGI,HL-60(TB) leukemia,> 100 µM
same,TGI,COLO 205 colon,> 100 µM
same,TGI,IGROV1 ovarian,> 100 µM
same,TGI,U251 CNS,> 100 µM
same,TGI,HS 578T breast,> 100 µM
same,TGI,OVCAR-3 ovarian,> 100 µM
same,TGI,MDA-MB-231 breast,> 100 µM
same,TGI,HCT-15 colon,> 100 µM
same,TGI,CCRF-CEM leukemia,> 100 µM
same,TGI,OVCAR-4 ovarian,> 100 µM
same,TGI,786-0 renal,> 100 µM
same,TGI,SF-539 CNS,> 100 µM
same,TGI,NCI-H23 lung,> 100 µM
same,TGI,RPMI-8226 leukemia,> 100 µM
same,TGI,MDA-N,> 100 µM
same,TGI,SN12C renal,> 100 µM
same,TGI,UACC-62 melanoma,> 100 µM
same,TGI,SNB-19 CNS,> 100 µM
same,TGI,HCT-116 colon,> 100 µM
same,TGI,HOP-62 NSCLC,> 100 µM
same,TGI,MDA-MB-435,> 100 µM
same,TGI,DU-145 prostate,> 100 µM
same,TGI,LOX IMVI melanoma,> 100 µM
same,TGI,MOLT-4 leukemia,> 100 µM
same,TGI,RXF 393 renal,> 100 µM
same,TGI,SK-MEL-5 melanoma,> 100 µM
same,TGI,SNB-75 CNS,> 100 µM
same,TGI,OVCAR-8 ovarian,> 100 µM
same,TGI,SR leukemia,> 100 µM
same,TGI,ACHN renal,> 100 µM
same,TGI,UO-31 renal,> 100 µM
same,TGI,HT29 colon,> 100 µM
same,TGI,CAKI-1 renal,> 100 µM
same,TGI,NCI/ADR-RES ovarian,> 100 µM
same,TGI,HOP-92 NSCLC,> 100 µM
same,TGI,OVCAR-5 ovarian,> 100 µM
same,TGI,SF-295 CNS,> 100 µM

# — PubChem BioAssay (NCI)
